For experiment [1], the target named is T1, Phosphoethanolamine/phosphocholine phosphatase (Homo sapiens, UniProt Q8TCT1).
T1 sequence (Q8TCT1 whole entry): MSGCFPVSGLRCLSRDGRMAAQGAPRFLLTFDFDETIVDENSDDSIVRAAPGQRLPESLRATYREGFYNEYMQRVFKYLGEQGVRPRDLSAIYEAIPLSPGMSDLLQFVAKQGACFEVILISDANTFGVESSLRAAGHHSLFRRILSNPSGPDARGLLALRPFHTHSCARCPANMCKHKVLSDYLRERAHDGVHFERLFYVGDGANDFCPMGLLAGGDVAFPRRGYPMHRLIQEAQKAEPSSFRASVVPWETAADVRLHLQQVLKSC
Put plainly: SAR assay for compounds that inhibit PHOSPHO1. [Related pubchem assays (depositor defined):AID1545, AID1565, AID1574].

Experiment [2] deals with T2, Mannose-6-phosphate isomerase (Homo sapiens, UniProt P34949).
T2 sequence (P34949 whole entry): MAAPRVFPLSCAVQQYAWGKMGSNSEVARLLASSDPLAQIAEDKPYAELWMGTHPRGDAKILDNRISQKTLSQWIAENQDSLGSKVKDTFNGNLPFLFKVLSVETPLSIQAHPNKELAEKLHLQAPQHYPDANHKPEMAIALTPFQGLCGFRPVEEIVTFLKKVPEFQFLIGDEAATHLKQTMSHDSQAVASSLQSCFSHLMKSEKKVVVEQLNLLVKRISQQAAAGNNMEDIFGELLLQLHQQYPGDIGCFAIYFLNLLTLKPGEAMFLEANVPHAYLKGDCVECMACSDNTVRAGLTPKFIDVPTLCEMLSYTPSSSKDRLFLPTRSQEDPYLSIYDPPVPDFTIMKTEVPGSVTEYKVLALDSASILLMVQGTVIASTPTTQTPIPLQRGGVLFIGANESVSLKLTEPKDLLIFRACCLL
Put plainly: phosphomannose isomerase inhibition – biochemical, fluorescence intensity, confirmation (AID 1535).

In experiment [3] the target is T3, Alkaline phosphatase, tissue-nonspecific isozyme (Homo sapiens, UniProt P05186).
T3 sequence (P05186 whole entry): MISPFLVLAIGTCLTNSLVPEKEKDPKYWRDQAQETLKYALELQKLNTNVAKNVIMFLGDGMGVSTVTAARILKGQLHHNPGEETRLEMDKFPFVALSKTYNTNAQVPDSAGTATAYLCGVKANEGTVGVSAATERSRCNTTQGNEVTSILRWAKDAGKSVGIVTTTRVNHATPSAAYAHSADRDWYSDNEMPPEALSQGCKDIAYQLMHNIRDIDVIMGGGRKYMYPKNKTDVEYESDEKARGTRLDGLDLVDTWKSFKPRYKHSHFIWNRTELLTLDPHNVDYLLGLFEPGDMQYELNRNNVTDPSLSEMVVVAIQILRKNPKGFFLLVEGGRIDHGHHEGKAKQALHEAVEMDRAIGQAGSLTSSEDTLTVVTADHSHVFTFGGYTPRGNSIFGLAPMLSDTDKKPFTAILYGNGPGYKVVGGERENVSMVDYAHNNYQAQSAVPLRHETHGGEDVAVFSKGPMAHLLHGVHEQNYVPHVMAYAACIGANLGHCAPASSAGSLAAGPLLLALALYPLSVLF
Put plainly: potency against alkaline phosphatase TNAP – biochemical, luminescent, dose response, SAR follow-up (AID 1056).

Experiment [4] concerns the target T4, Phosphomannomutase 2 (Homo sapiens, UniProt O15305).
T4 sequence (O15305 whole entry): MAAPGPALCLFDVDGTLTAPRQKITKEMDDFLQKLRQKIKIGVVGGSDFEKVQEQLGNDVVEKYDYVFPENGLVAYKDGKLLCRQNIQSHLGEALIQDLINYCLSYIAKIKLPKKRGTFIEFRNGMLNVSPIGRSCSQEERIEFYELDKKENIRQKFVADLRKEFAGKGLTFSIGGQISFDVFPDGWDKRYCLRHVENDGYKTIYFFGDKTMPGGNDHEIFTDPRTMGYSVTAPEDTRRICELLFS
The experiment in a line: Counter screen SAR assay for PMM2 inhibitors via a fluorescence intensity assay. [Related pubchem assays (depositor defined):AID1545, AID1574]. (Counterscreens check selectivity or assay interference.)

The nature of experiment [5]: Luminescence Cell-Based Dose Retest to Confirm Inhibitors of Cancer Stem Cells. [Related pubchem assays (depositor defined):AID2717, AID2721]. The following applies: Homo sapiens. Type of experiment: functional, Homo sapiens.
Experiment [6] can be described thus: cells. It counts as functional, cell-based.
A short description of experiment [7]: viability loss of HMLE_sh_eGFP cells – cell-based, luminescence, counter-screen for HMLE_sh_ECad selective toxicity project, dose response (AID 463074).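 Also: HMLE human mammary epithelial cells expressing control shRNA against eGFP.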 Type of experiment: functional, Homo sapiens.
Experiment [8] can be described thus: cells. Type of experiment: functional, cell-based. The source holds these as a separate data set.
The target in experiment [9] is Phospholipase A2 (Homo sapiens, UniProt P04054). It counts as functional.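 Also: confirmatory dose-response counterscreen on phospholipase A2, testing hits that came from an ultra-high-throughput screen for ATG4B inhibitors.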
Phospholipase A2, sequence (P04054 whole entry): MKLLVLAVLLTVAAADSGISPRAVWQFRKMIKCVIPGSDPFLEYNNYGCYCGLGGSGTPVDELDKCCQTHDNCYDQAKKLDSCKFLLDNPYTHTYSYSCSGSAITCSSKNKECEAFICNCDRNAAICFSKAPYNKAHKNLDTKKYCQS
Experiment [10] concerns the target T5, Cysteine protease ATG4B (Homo sapiens, UniProt Q9Y4P1).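 Also: Fluorescence-based dose-response confirmation assay measuring inhibition of ATG4B activity.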
T5 sequence (Q9Y4P1 whole entry): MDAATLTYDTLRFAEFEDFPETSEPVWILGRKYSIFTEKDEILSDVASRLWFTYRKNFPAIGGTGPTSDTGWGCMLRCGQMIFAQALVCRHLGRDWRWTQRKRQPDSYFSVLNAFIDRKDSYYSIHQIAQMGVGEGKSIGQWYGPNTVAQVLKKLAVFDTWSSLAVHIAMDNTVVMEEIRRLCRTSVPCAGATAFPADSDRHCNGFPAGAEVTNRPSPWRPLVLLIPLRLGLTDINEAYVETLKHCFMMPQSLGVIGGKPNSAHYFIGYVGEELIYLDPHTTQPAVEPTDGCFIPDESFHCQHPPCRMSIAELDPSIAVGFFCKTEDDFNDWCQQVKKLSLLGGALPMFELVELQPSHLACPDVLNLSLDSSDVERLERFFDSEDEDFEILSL
It counts as functional.

Active and inactive are the calls of the source.
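For EC50 in this document: agonist potency from rise in intracellular calcium fluorescence.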

Usually IC50 stands for the point on the concentration scale where inhibition reaches its midpoint. As to `CCOC(=O)c1ccc(-n2sc3ccccc3c2=O)cc1`, the IC50 in [1] is 1.24 µM (inactive); in [2], 23.6 µM (active); in experiment [3], > 100 µM (inactive); in [4], > 100 µM (inactive).

In general, AC50 refers to the concentration at which the activity in the assay is half-maximal. What is called EC50 is the concentration needed to bring the measured effect to its halfway point. As for `OC(COc1ccc(CNCCc2ccccc2F)cc1)CN1CCCCC1` (stereo unspecified), the AC50 was > 195 µM (inactive) in experiment [5] and 33.9 µM (active) in experiment [7]. The EC50 in [6] is > 29.9 µM (inactive). Besides, in experiment [8], the IC50 was > 29.9 µM (inactive).

For the compound `Cc1cc(C)nc(SCc2ccc(C(=O)N/N=C3\CC(C)CC(C)(C)C3)cc2)n1` (stereo unspecified), the IC50 in experiment [9] was 17.9 µM (active); in experiment [10] it was 22.7 µM (inactive).

Regarding `Fc1ccc(CCN=C(S)Nc2ccc(F)c(Cl)c2)cc1`, the IC50 is 8.38 µM (active) in experiment [9] and 12.4 µM (active) in [10].

In the case of `Cc1onc(-c2ccccc2)c1C(=O)Nc1sc2c(c1C#N)CCC(C)C2` (stereo unspecified), the concentration at half-maximal activity (AC50) was 1.12 µM (active) in experiment [5] and 26.3 µM (active) in [7].

Turning to `COc1ccc(-c2cc([C@H]3[C@H]4C=CC[C@@H](C)[C@@H]4C(=O)N3Cc3ccccc3)ccc2F)cc1`, the half-maximal activity concentration (AC50) in experiment [5] is 2.76 µM (active); in [7], 22 µM (active).

(Values after ChEMBL document CHEMBL1201862, “PubChem BioAssay data set” (2004).)
